Where “and” joins values, the source holds several entries; their conditions need not be identical. Identical values can stand only once. Counter-ions that a name gives are not always drawn. Like-named read-outs stand apart in the source and are kept apart here.
Key:
HEK293 cells = assay: Cytotoxicity in HEK293 cells (CCK-8, 24 h); format: cell-based; conditions: for HEK293 cytotoxicity at 100 μM ("100 μM result in x%"): NT=not toxic
Method: (§1) H9c2 (ATCC®R-1446™) cells Were used in the studies. The H9c2 cells were maintained in DMEM (Dulbeccoa's Modified Eagle's Medium) supplemented with 10% fetal bovine serum (Mid Sci; S01520HI) and 1% penicillin-streptomycin (Sigma-Aldrich; P4333) at 37° C. with 5% CO2. The H9c2 cells were seeded in 96-well plate one day before the experiment. Different concentrations of di-amidine compounds were added into the H9c2 cells. The cells were then incubated with the compounds for 24 h at 37° C. with 5% CO2. The cell viability was tested by the CCK-8. Specifically, after 24 h incubation, 10 μL CCK-8 was added to each well. After 3 h incubation at 37° C., the absorbance at 450 nm was recorded by a plate reader. The cytoxicity in HEK293 and 3T3 cells was measured using the same procedure. Data is shown in Table 5 (NT=not toxic; --=not tested).

E. coli and MRSA = assay: Relative ratio of E. coli and MRSA under trovafloxacin with/without Compound A-8; format: cell-based, Escherichia coli; Staphylococcus aureus; conditions: trovafloxacin (16 ng/ml) alone
Source text: FIG. 23A is a comparison of the relative ratio of E. coli and MRSA treated with the antibiotic trovafloxacin in the absence (pie chart on the left) and in the presence (pie chart on the right) of Compound A-8 as described in Example 14. In the absence of Compound A-8, trovafloxacin preferred to inhibit E. coli and the bacterial population was 78% MRSA. However, Compound A-8 sensitizes trovafloxacin to MRSA.
As a proof of concept, the relative ratio of E. coli and MRSA (FIG. 23A) or B. subtilis and MRSA (FIG. 23 B) was measured with and without Compound A-8. […] However, when trovafloxacin (8 ng/ml) is supplied with 1.5 μg/ml of Compound A-8, MRSA inhibition was achieved and E. coli was the dominant species (89% of the bacteria population).

[1] = test system: NDM-1 over-expressing E. coli; assay: microbe, parasite or virus in culture; format: cell-based, Escherichia coli; conditions: for Sensitization fold: MIC of antibiotic only / MIC with Compound C 5 μg/ml; for FIC / MIC of AB with Compound C (5 μg/ml): antibiotic plus Compound C 5 μg/ml
wild-type E. coli = assay: Sensitization of wild-type E. coli toward antibiotics (MIC of antibiotic with/without sensitizer); format: cell-based, Escherichia coli; conditions: for MIC: Escherichia coli; for FIC: fractional inhibitory concentration, antibiotic plus Compound C 5 μg/ml
Method: Bacteria were cultured with the antibiotic at various concentrations in the presence or absence of bacterial sensitizer for 24 hours at 37° C. Bacterial growth density was determined by measuring OD600 (absorbance measured at a wavelength of 600 nm). […]
The formula for calculating FIC is shown below: […]

wild type B. subtilis [2] = assay: Sensitization of B. subtilis toward antibiotics (MIC, OD600, 24 h); format: cell-based, Bacillus subtilis; conditions: for MIC of antibiotic on B. subtilis in the presence of Compound M-1: 5.5 μg/ml Compound M-1
Method: (§2) FIG. 22A is a bar graph showing that Compound M-1 sensitizes B. subtilis towards rifampicin as described in Example 13. Bacteria was cultured with rifampicin at various concentrations in the presence or absence of Compound M-1 for 24 hours at 37° C. and bacterial growth density was determined by measuring OD600. The y-axis is growth density measured in percent. The x-axis is rifampicin concentration measured in micrograms per milliliter (***: p<0.01).
Compound M-1 can sensitize Gram-positive bacteria such as B. subtilis towards traditional antibiotics. […] The sensitization fold is 32-fold for Compound M-1 and the FIC index is 0.14.

wild type B. subtilis [3] = assay: as above; format: cell-based, Bacillus subtilis
MRSA = assay: Sensitization of MRSA toward antibiotics (OD600, 24 h); format: cell-based, Staphylococcus aureus
Method: as §2, with “Bacteria” for “FIG. 22A is a bar graph showing that Compound M-1 sensitizes B. subtilis towards rifampicin as described in Example 13. Bacteria”
Compound M-1 (2.7 μg/ml) sensitizes MRSA towards existing antibiotics such as rifampicin (32-fold) (FIG. 22B) and trovafloxacin (16-fold). Rifampicin is the first line of defense against MRSA and many MRSA stains grow resistance to rifampicin through overexpression of efflux pump and other mechanisms. Combined with Compound M-1, rifampicin can be used more effectively against MRSA.

E. coli = assay: Sensitization of E. coli to erythromycin (sensitization fold from IC90, OD600, 20 h); format: cell-based, Escherichia coli; conditions: general statement on amidine substitution or ring restraint
Method: E. coli bacteria were cultured in Miller's broth at 37° C. overnight prior to treatment. B. subtilis bacteria were cultured in nutrient broth at 37° C. overnight prior to treatment. […] Bacterial density was measured based on OD600.

B. subtilis = B. subtilis viability with antibiotic in absence or presence of compound (OD600, 20 h); format: cell-based, Bacillus subtilis; conditions: M-1 12.5 or 6 μM; A-2 6 or 12.5 μM; A-8; 20 h
Method: Bacterial viability was then determined by measuring density using OD600. […] B. subtilis was also cultured with either novobiocin or tetracycline at varying concentrations either in the absence or presence of compound M-1 (12.5 μM) for 20 hours. Bacterial viability was subsequently determined by measuring density using OD600.
Bacterial viability was then determined by measuring density using OD600.

3T3 cells = assay: Cytotoxicity in 3T3 cells (CCK-8, 24 h); format: cell-based
Method: as §1

[4] = Lipid A binding assay using Dansyl-PMBN displacement on E. coli; set-up: species or system Escherichia coli; conditions: 10 μM Dansyl-PMBN on E. coli, gradual addition of compound
Method: FIG. 21 is a graph describing the in vivo lipid A binding assay using Dansyl-PMBN as described in Example 11. Dansyl-PMBN (10 μM) was added to E. coli (OD600 measurement of about 0.5) and the fluorescent intensity at this time was recorded as F0. Sensitizers (Compound C, Compound E-20, and Polymyxin B) were added gradually and the fluorescent intensity was recorded 30 seconds later to determine the fluorescent intensity as a percent. The x-axis is concentration of the sensitizers measured in μM and the y-axis is the fluorescent intensity measured as a percent.
Lipid A is a key component of the outer membrane of Gram-negative bacteria and is responsible for maintaining its integrity of the outer membrane. The binding affinity of the compounds of the present invention to Lipid A was measured following literature procedures using a fluorescent conjugate of a polymyxin-B derivative (Dansyl-PMBN). Dansyl-PMBN binds to the lipid A part of LPS and leads to increased fluorescent intensity. […] When 10 μM of Dansyl-PMBN was added to E. coli stock (OD600 measurement around 0.5), the fluorescent intensity increased 10-fold.

[5] = 24 h, antibiotic alone, wild-type E. coli, read-out: MIC of AB only
[6] = antibiotic alone, wild-type E. coli, read-out: MIC of AB only
[7] = read-out: MIC of AB with Compound C (5 μg/ml), antibiotic plus Compound C 5 μg/ml, wild-type E. coli

COc1cc(C(=N)N)ccc1OCc1cc(COc2ccc(C(=N)N)cc2OC)cc(C(C)(C)C)c1 [drawing 882]
HEK293 cytotoxicity at 100 μM ("100 μM result in x%") (HEK293 cells): 100 μM result in 20%

N[C@@H]1[C@H]2CN(c3nc4c(cc3F)c(=O)c(C(=O)O)cn4-c3ccc(F)cc3F)C[C@@H]12 [Trovafloxacin, trovafloxacin]
MRSA share of the bacteria population (E. coli + MRSA) (E. coli and MRSA): 78%
MIC ([1]; Escherichia coli, antibiotic alone, read-out: MIC of AB only): 0.025 µg/mL
Sensitization fold [1]: 32
FIC [1]: 0.13
MIC of AB with Compound C (5 μg/ml) [1]: 0.8 ng/mL
MIC (wild-type E. coli; [5]): 0.05 µg/mL
MIC (wild-type E. coli; [6]): 0.05 µg/mL
MIC (wild-type E. coli; [7]): 0.0015 µg/mL
FIC (wild-type E. coli; wild-type E. coli): 0.13

CO[C@H]1/C=C/O[C@@]2(C)Oc3c(C)c(O)c4c(O)c(c(/C=N/N5CCN(C)CC5)c(O)c4c3C2=O)NC(=O)/C(C)=C\C=C\[C@H](C)[C@H](O)[C@@H](C)[C@@H](O)[C@@H](C)[C@H](OC(C)=O)[C@@H]1C [Rifampicin, rifampicin]
MIC of antibiotic on B. subtilis in the presence of Compound M-1 (wild type B. subtilis [2]): 0.037 µg/mL
Sensitization fold [1]: 516
FIC [1]: 0.11
MIC of AB with Compound C (5 μg/ml) [1]: 19 ng/mL
MIC (wild-type E. coli; [5]): 10 µg/mL
MIC (wild-type E. coli; [6]): 10 µg/mL
MIC (wild-type E. coli; [7]): 0.02 µg/mL
Sensitization fold (wild-type E. coli; MIC of antibiotic only / MIC of antibiotic with Compound C 5 μg/ml, wild-type E. coli): 516 and 512
FIC (wild-type E. coli; wild-type E. coli): 0.11 and 0.10

Cc1cc(COc2ccc(CN)cc2)cc(COc2ccc(CN)cc2)c1 [Compound E-11, 1,3-Bis {(4-methanamine)-phenoxymethyl}-5-methylbenzene dihydrochloride]
Sensitization fold, B. subtilis towards erythromycin (wild type B. subtilis [3]; compound at 5 μg/ml): 32 fold
Sensitization effect on MRSA (MRSA; compound at 5 μg/ml): no effect

Cc1cc(COc2ccc(C3=NCCN3)cc2)cc(COc2ccc(C3=NCCN3)cc2)c1 [Compound A-2, 2,2′-((((5-Methyl-1,3-phenylene)bis(methylene))bis(oxy))bis(4,1-phenylene))bis(4,5-dihydro-1H-imidazole) Dihydrochloride]
Ability to sensitize Gram-negative bacteria (while preserving ability to sensitize some Gram-positive bacteria) (E. coli): greatly decrease, or even abolish
B. subtilis growth inhibition, compound in combination with erythromycin vs erythromycin alone (B. subtilis): significant bacterial growth inhibition

COc1cc(C(=N)N)ccc1OCc1cc(C)cc(COc2ccc(C(=N)N)cc2OC)c1 [drawing 871]
HEK293 cytotoxicity at 100 μM ("100 μM result in x%") (HEK293 cells): 100 μM result in 10%

Cc1cc(COc2ccc(C3=NCCCN3)cc2)cc(COc2ccc(C3=NCCCN3)cc2)c1 [Compound B-21, 2,2′-((((5-Methyl-1,3-phenylene)bis(methylene))bis(oxy))bis(4,1-phenylene))bis(1,4,5,6-tetrahydropyrimidine) dihydrochloride]
Ability to sensitize Gram-negative bacteria (while preserving ability to sensitize some Gram-positive bacteria) (E. coli): greatly decrease, or even abolish
Sensitization effect on B. subtilis (wild type B. subtilis [2]; compound at 10 μg/ml): no effect
Sensitization fold, MRSA towards rifampicin (MRSA; compound at 10 μg/ml): 16 fold

CC[C@H]1OC(=O)[C@H](C)[C@@H](O[C@H]2C[C@@](C)(OC)[C@@H](O)[C@H](C)O2)[C@H](C)[C@@H](O[C@@H]2O[C@H](C)C[C@H](N(C)C)[C@H]2O)[C@](C)(O)C[C@@H](C)C(=O)[C@H](C)[C@@H](O)[C@]1(C)O [Erythromycin, erythromycin]
MIC of antibiotic on B. subtilis in the absence of Compound M-1 (wild type B. subtilis [3]; antibiotic alone): 50 µg/mL
MIC of antibiotic on B. subtilis in the presence of Compound M-1 (wild type B. subtilis [2]): 1.5 µg/mL
MIC (wild-type E. coli; [6]): 50 µg/mL
MIC (wild-type E. coli; [7]): 0.4 µg/mL
FIC (wild-type E. coli; wild-type E. coli): 0.11

Cc1cc(COc2ccc(CN)cc2)cc(COc2ccc(CN)cc2)c1 [drawing 874]
HEK293 CC^50 (HEK293 cells): 25 µM
3T3 CC^50 (3T3 cells): 25 µM

CCCCCc1cc(OCc2ccc(C(=N)N)cc2)cc(OCc2ccc(C(=N)N)cc2)c1 [Compound E-20, 1,3-Bis {(4-amidino)-benzyloxy}-5-(n-pentyl)benzene dihydrochloride]
Binding to lipid A (decrease of Dansyl-PMBN fluorescent intensity) [4]: bind to lipid A

Source: patent US12595251B2, “Amidines and amidine analogs for the treatment of bacterial infections and potentiation antibiotics” (GEORGIA STATE UNIVERSITY RESEARCH FOUNDATION, INC., priority 2018, dated 2026)
